pEC50: −log10 of the molar value. Where two headings read alike, the source gives them in different places.
What was measured:
HCC1954 cells [1] = test: Cytotoxicity of compounds, CellTiter-Glo; type: cell-based; details: Homo sapiens, HCC1954
Excerpt: (§1) Cell lines used: Human T-cell leukemia cell line Jurkat (ATCC: TIB-152); HCC1954 (ATCC: CRL. 2338); Human Pancreatic cells lines: AsPC-1 (ATCC: CRL-1682), BxPC-3 (ATCC: CRL.1687), HPAF-II (ATCC: CRL.1997), MiaPaCa2 (ATCC: CRL.1420), PANC-1 (ATCC: CRL.1469), Capan-1 (ATCC: HTB-79), Capan-2 (ATCC: HTB-80) and the Human gastric carcinoma cell line NCI-N87 (ATCC: CRL. 5822); AML-193 (ATCC: CRL.9589), CCRF-CEM (ATCC: CCL-119), DU145 (ATCC: HTB-81), PC-3 (ATCC: CRL.1435), A-431 (ATCC: CRL.1555), HT-29 (ATCC: HTB-38), A-172 (ATCC: CRL.1620), NCI-H358 (ATCC: CRL.5807), A549 (ATCC: CCL-185), Colo-205 (ATCC: CCL-222), MDA-MB-231 (ATCC: HTB-26), OVCAR-3 (ATCC: HTB-161), OV-90 (ATCC: CRL.11732), OE19 (Sigma: 96071721), RT 112/84 (Sigma: 85061106).
(§2) On the day prior to adding compounds, HCC1954 AsPC-1, BxPC-3, HPAF-II, MiaPaCa2, PANC-1, Capan-1, Capan-2 and NCI-N87 cells were added to opaque-walled 96-well tissue culture-treated microtiter plates using complete growth medium at a density of 2500 cells/100 microlitre (uL) of medium. These adherant cell lines cells were incubated for one night at 37° C./5% CO2 to allow the cells to attach to the microtiter plate surface. On the day that compounds were added, Jurkat cells are added to separate 96-well microtiter plates at 2500 cells/100 uL using the same growth medium as HCC1954. Compound were first serially diluted using dimethyl sulfoxide, and then the prepared dilutions are added to complete growth medium at five-times the final concentration—compounds were then titrated 1:3, eight steps. A control with no compound (growth medium alone) was included on each microtiter plate in sextuplicate. The prepared compounds titrations were added (twenty-five uL/well) in triplicate. The cells and compound titrations were incubated at 37° C./5% CO2 for three nights. After the incubation, cell viability is measured using CellTiter-Glo® reagent by adding thirty uL of prepared CellTiter-Glo® to each assay well. The assay is incubated for at least twenty minutes in the dark prior to measuring emitted luminescence using a microplate luminometer (500 ms integration time). The collected relative luminescence units (RLU) are converted to % cytotoxicity using the Growth medium alone control mentioned above (% Cytotoxicity=1−[Well RLU/average medium alone control RLU]).
(§3) GraphPad Prism was used for generation of EC50 values using three parameter non-linear regression curve fitting.

AsPC-1 = test: Cytotoxicity of compounds, CellTiter-Glo; type: cell-based; details: Homo sapiens
Excerpt: (§4) FIG. 1 summarizes the data for compounds A, B, C, D, and E when tested using the Human mammary carcinoma cell line HCC1954 or Human T-cell leukemia cell line Jurkat. FIGS. 2-6 show the cytotoxicity data plots for individual compounds A-E. Tables 2-6 summarize the results of additional cytotoxicity assays.
as §1, §2, §3

BxPC-3 = test: Cytotoxicity of compounds, CellTiter-Glo; type: cell-based; details: Homo sapiens
Excerpt: as §4, §1, §2, §3

Capan-1 = test: Cytotoxicity of compounds, CellTiter-Glo; type: cell-based; details: Homo sapiens, Table 5
Excerpt: as §4, §1, §2, §3

Capan-2 = test: Cytotoxicity of compounds, CellTiter-Glo; type: cell-based; details: Homo sapiens, Table 5
Excerpt: as §4, §1, §2, §3

HPAF-II = test: Cytotoxicity of compounds, CellTiter-Glo; type: cell-based; details: Homo sapiens
Excerpt: as §4, §1, §2, §3

MiaPaCa2 = test: Cytotoxicity of compounds, CellTiter-Glo; type: cell-based; details: Homo sapiens
Excerpt: as §4, §1, §2, §3

NCI-N87 = test: Cytotoxicity of compounds, CellTiter-Glo; type: cell-based; details: Homo sapiens
Excerpt: as §4, §1, §2, §3

PANC-1 = test: Cytotoxicity of compounds, CellTiter-Glo; type: cell-based; details: Homo sapiens
Excerpt: as §4, §1, §2, §3

A-172 = test: Cytotoxicity on various cell lines; type: cell-based; details: Homo sapiens, Table 8
Excerpt: as §4, §1, §2, §3

A-431 = test: Cytotoxicity on various cell lines; type: cell-based; details: Homo sapiens, Table 8
Excerpt: as §4, §1, §2, §3

AML-193 = test: Cytotoxicity on various cell lines; type: cell-based; details: Table 8
Excerpt: as §4, §1, §2, §3

CCRF-CEM = test: Cytotoxicity on various cell lines; type: cell-based; details: Homo sapiens, Table 8
Excerpt: as §4, §1, §2, §3

Colo-205 = test: Cytotoxicity on various cell lines; type: cell-based; details: Homo sapiens, Table 8
Excerpt: as §4, §1, §2, §3

DU145 = test: Cytotoxicity on various cell lines; type: cell-based; details: Homo sapiens, DU-145, Table 8
Excerpt: as §4, §1, §2, §3

HT-29 = test: Cytotoxicity on various cell lines; type: cell-based; details: Homo sapiens, Table 8
Excerpt: as §4, §1, §2, §3

MDA-MB-231 = test: Cytotoxicity on various cell lines; type: cell-based; details: Homo sapiens, Table 8
Excerpt: as §4, §1, §2, §3

NCI-H358 = test: Cytotoxicity on various cell lines; type: cell-based; details: Homo sapiens, Table 8
Excerpt: as §4, §1, §2, §3

OE19 = test: Cytotoxicity on various cell lines; type: cell-based; details: Homo sapiens, Table 8
Excerpt: as §4, §1, §2, §3

OV-90 = test: Cytotoxicity on various cell lines; type: cell-based; details: Homo sapiens, Table 8
Excerpt: as §4, §1, §2, §3

OVCAR-3 = test: Cytotoxicity on various cell lines; type: cell-based; details: Homo sapiens, Table 8
Excerpt: as §4, §1, §2, §3

PC-3 = test: Cytotoxicity on various cell lines; type: cell-based; details: Homo sapiens, Table 8
Excerpt: as §4, §1, §2, §3

RT112/84 = test: Cytotoxicity on various cell lines; type: cell-based; details: Homo sapiens, Table 8
Excerpt: as §4, §1, §2, §3

Jurkat cells [2] = test: Cytotoxicity of compounds, CellTiter-Glo; type: cell-based, Human; details: Homo sapiens, Jurkat
Method in brief: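 HCC1954 plated at 2500 cells/100 uL and attached overnight; Jurkat plated at 2500 cells/100 uL on the day of dosing. Cells exposed to 8-step 1:3 compound titrations for three nights at 37° C./5% CO2, in triplicate. CellTiter-Glo luminescence converted to % cytotoxicity versus medium-only control; EC50 by three-parameter nonlinear regression.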

HCC1954 cells [3] = test: Cytotoxicity assay of SMCC- and LC-SPDP-linked ADCs and free compounds; type: cell-based; details: Homo sapiens, HCC1954, Table 9, Coupling #1, read-out: HCC1954 Best-fit EC50
Procedure: (§5) The purified ADCs were then analysed for: total protein content (BCA assay, Pierce microBCA protocol), relative affinity for antigen binding (equilibrium native binding), and selective cytotoxic killing of HER2-positive cells (HCC1954) compared HER2-negative cells (Jurkat).
(§6) On the day prior to adding test articles, HCC1954 cells were added to opaque-walled 96-well tissue culture-treated microtiter plates using complete growth medium at a density of 2500 cells/100 microlitre (uL) of medium. The HCC1954 cells were incubated for one night at 37° C./5% CO2 to allow the cells to attach to the microtiter plate surface. On the day that test articles were added, Jurkat cells are added to separate 96-well microtiter plates at 2500 cells/100 uL using the same growth medium as HCC1954. To compare the ADC killing to that obtained from the free-compounds, the n-acyl sulfonamide compounds were first serially diluted using dimethyl sulfoxide or DMA, and then the prepared dilutions are added to complete growth medium at five-times the final concentration—compounds were then titrated 1:3, eight steps. To test the ADCs, they were diluted directly in growth medium at five-times the final concentration—ADCs were then titrated 1:3, eight steps. A control with no test article present (growth medium alone) was included on each microtiter plate in sextuplicate. The prepared compound/ADC titrations were added (twenty-five uL/well) in triplicate to both the HCC1954 cells and Jurkat cells. The cells and titrations were incubated at 37° C./5% CO2 for three nights. After the incubation, cell viability was measured using CellTiter-Glo® reagent by adding thirty uL of prepared CellTiter-Glo® to each assay well. The assay was incubated for at least twenty minutes in the dark prior to measuring emitted luminescence using a microplate luminometer (500 ms integration time). The collected relative luminescence units (RLU) were converted to % cytotoxicity using the Growth medium alone control mentioned above (% Cytotoxicity=1−[Well RLU/average medium alone control RLU]).

Jurkat cells [4] = test: as above; type: cell-based; details: Homo sapiens
Procedure: as §5, §6

In the case of `CN[C@H](C(=O)N[C@H](C(=O)N(C)[C@H](/C=C(\C)C(=O)NS(=O)(=O)Cc1ccccc1)C(C)C)C(C)(C)C)C(C)(C)c1ccccc1` [Compound 14, (S,E)-N-(benzylsulfonyl)-2,5-dimethyl-4-((S)—N,3,3-trimethyl-2-((S)-3-methyl-2-(methylamino)-3-phenylbutanamido)butanamido)hex-2-enamide], the pEC50 (HCC1954 cells [1]; Table 8, HCC-1954, read-out: (EC50)) was 9.88, the pEC50 (AsPC-1; ASPC1, Table 5, read-out: Cytotoxicity (EC50) AsPC-1) was 9.69 and the pEC50 (AsPC-1; ASPC1, Table 8, read-out: (EC50)) was 9.48. It also gave a pEC50 (BxPC-3; Table 5, read-out: Cytotoxicity (EC50) BxPC-3) of 10.34, a pEC50 (BxPC-3; Table 8, read-out: (EC50)) of 9.71 and a pEC50 (Capan-1) of 8.68. The pEC50 (Capan-2) was 8.96, the pEC50 (HPAF-II; Table 5, read-out: Cytotoxicity (EC50) HPAF-II) was 9.76 and the pEC50 (HPAF-II; Table 8, read-out: (EC50)) was roughly 9.41. For the same compound, the pEC50 (MiaPaCa2; MIA PaCa-2, Table 5, MinPaCa2, read-out: Cytotoxicity (EC50) MinPaCa2) was 9.69, the pEC50 (MiaPaCa2; Table 8, Mia PaCa-2, read-out: (EC50)) was 9.48 and the pEC50 (NCI-N87; Table 5, read-out: Cytotoxicity (EC50) NCI-N87) was 9.76. It also gave a pEC50 (NCI-N87; Table 8, read-out: (EC50)) of 9.49, a pEC50 (PANC-1; Table 5, read-out: Cytotoxicity (EC50) PANC-1) of 8.87 and a pEC50 (PANC-1; Table 8, read-out: (EC50)) of 9.12. It also gave a pEC50 (A-172) of 9.22, a pEC50 (A-431) of 9.72 and a pEC50 (AML-193) of 9.72. For the same compound, the pEC50 (CCRF-CEM) was 9.89, the pEC50 (Colo-205) was roughly 9.50 and the pEC50 (DU145) was 9.19. It also gave a pEC50 (HT-29) of 9.78, a pEC50 (MDA-MB-231) of 8.91 and a pEC50 (NCI-H358) of 9.51. The pEC50 (OE19) was 9.68, the pEC50 (OV-90) was 9.29 and the pEC50 (OVCAR-3) was 10.05. It also gave a pEC50 (PC-3) of 9.34 and a pEC50 (RT112/84) of 9.75.
With `CN[C@H](C(=O)N[C@H](C(=O)N(C)[C@H](/C=C(\C)C(=O)NS(=O)(=O)CCCS)C(C)C)C(C)(C)C)C(C)(C)c1ccccc1` [Compound A, (S,E)-N-(3-mercaptopropylsulfonyl)-2,5-dimethyl-4-((S)—N,3,3-trimethyl-2-((S)-3-methyl-2-(methylamino)-3-phenylbutanamido)butanamido)hex-2-enamide] the pEC50 (HCC1954 cells [1]; Table 4, Cytotoxicity of Compounds on HCC-1954 Cells, read-out: EC50) was 8.68, the pEC50 (HCC1954 cells [1]; Table 2, read-out: HCC1954 EC50) was 8.52 and the pEC50 (Jurkat cells [2]; Table 1, Jurkat cells (HER2−), three nights, read-out: Jurkat cells (HER2−) EC50) was 9.11. It also gave a pEC50 (Jurkat cells [2]; Table 2, read-out: Jurkat EC50) of 8.30, a pEC50 (Jurkat cells [2]; Table 3, Cytotoxicity of Compounds on Jurkat Cells, read-out: EC50) of 8.35 and a pEC50 (HCC1954 cells [3]) of 8.68. For the same compound, the pEC50 (Jurkat cells [4]; Table 9, Coupling #1, read-out: Jurkat Best-fit EC50) was 8.96 and the pEC50 (Jurkat cells [4]; Table 10, Coupling #2, read-out: Jurkat Best-fit EC50) was 9.11.
